# Source: patent US11572590B2, “Methods for evaluating tumor cell spheroids using 3D microfluidic cell culture device” (Dana-Farber Cancer Institute, Inc., priority 2017, dated 2023)
# Read-outs that look alike come from different tables or passages of the source.
# Legend:
# Assay in all cases: SelectScreen Kinase Profiling, single point inhibition and IC50 for off-target kinases
# Assay type in all cases: biochemical
# off-target kinases [1] = target: off-target kinases (Homo sapiens, UniProt O94921); conditions: CDK14 (PFTK1)/cyclin Y, LanthaScreen Binding
# Chain of off-target kinases (Homo sapiens, UniProt O94921) (O94921 whole entry): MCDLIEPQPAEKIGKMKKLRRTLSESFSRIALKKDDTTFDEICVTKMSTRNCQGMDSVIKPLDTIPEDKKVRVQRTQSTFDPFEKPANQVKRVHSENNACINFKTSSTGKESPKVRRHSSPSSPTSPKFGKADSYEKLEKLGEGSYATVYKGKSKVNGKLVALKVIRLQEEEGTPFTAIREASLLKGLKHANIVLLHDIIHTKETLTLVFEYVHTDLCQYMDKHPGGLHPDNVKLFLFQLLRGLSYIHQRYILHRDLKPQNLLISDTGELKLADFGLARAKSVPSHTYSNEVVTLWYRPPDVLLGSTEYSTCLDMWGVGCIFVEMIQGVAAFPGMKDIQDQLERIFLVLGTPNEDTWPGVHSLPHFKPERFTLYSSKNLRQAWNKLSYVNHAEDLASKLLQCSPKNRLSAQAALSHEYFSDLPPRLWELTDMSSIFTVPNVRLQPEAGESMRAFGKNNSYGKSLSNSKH
# off-target kinases [2] = target: off-target kinases (Homo sapiens, UniProt P00519); conditions: ABL1, ATP Km app, ZLYTE
# off-target kinases [3] = target: off-target kinases (Homo sapiens, UniProt P00519, G250E); conditions: ABL1 G250E, ATP Km app, ZLYTE
# off-target kinases [4] = target: off-target kinases (Homo sapiens, UniProt P11362, V561M); conditions: FGFR1 V561M, mutant y, LanthaScreen Binding
# Chain of off-target kinases (Homo sapiens, UniProt P11362, V561M) (P11362 22-822 V561M): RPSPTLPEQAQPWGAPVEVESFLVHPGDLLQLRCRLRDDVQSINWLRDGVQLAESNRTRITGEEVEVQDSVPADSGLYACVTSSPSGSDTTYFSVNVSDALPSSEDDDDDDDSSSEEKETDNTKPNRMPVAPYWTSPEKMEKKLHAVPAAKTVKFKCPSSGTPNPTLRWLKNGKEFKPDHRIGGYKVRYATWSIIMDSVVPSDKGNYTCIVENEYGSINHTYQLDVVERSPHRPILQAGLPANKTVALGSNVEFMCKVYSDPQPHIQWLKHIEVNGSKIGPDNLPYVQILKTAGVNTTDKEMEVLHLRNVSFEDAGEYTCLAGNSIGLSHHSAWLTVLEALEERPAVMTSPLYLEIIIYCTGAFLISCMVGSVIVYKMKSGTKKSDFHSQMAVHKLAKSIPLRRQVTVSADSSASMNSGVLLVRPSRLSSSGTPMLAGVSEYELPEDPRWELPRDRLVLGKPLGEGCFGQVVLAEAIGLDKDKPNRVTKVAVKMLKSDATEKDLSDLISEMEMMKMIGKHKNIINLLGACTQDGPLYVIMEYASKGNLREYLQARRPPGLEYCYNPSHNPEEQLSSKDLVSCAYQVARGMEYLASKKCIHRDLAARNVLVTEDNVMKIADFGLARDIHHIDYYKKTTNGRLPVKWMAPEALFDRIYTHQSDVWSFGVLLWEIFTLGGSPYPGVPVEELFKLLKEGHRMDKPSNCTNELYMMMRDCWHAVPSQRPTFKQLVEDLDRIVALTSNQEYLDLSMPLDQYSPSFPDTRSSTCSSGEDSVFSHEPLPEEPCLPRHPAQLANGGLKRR
# off-target kinases [5] = target: off-target kinases (Homo sapiens, UniProt P35916); conditions: FLT4 (VEGFR3), ATP Km app, ZLYTE
# Chain of off-target kinases (Homo sapiens, UniProt P35916) (P35916 25-1363): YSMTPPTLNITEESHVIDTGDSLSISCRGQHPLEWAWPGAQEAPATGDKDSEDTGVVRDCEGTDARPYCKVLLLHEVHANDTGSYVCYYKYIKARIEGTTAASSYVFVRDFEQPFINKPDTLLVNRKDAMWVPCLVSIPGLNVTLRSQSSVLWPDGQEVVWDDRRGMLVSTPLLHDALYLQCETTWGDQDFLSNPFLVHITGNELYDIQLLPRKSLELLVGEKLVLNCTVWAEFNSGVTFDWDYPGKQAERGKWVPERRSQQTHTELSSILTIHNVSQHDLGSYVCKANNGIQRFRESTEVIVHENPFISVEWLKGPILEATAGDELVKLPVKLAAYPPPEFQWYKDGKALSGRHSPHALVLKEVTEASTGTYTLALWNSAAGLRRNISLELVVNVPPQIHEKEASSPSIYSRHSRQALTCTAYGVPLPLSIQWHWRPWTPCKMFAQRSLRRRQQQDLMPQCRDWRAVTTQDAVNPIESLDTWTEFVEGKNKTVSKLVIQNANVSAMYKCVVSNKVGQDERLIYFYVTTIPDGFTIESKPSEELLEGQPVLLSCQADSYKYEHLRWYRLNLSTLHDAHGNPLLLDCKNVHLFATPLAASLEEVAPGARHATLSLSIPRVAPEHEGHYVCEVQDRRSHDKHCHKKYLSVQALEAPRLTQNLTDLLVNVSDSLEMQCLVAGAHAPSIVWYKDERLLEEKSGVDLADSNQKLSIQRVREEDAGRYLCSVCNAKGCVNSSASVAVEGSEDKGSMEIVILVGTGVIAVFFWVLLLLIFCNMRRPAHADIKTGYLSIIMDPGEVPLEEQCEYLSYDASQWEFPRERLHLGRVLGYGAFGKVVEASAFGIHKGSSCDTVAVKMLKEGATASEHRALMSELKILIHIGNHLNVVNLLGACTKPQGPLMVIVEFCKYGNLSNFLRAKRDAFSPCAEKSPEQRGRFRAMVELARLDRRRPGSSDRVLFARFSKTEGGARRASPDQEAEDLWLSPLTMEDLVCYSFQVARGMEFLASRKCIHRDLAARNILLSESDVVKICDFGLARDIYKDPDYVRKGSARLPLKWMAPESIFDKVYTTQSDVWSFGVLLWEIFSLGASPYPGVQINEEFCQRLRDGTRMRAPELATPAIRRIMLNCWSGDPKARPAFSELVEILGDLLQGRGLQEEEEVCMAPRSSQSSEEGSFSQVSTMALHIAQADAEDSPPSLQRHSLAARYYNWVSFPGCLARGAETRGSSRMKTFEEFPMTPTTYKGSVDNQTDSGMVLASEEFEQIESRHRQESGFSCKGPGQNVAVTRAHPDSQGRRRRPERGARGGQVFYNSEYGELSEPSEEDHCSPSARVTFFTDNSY
# off-target kinases [6] = target: off-target kinases (Homo sapiens, UniProt P53355); conditions: DAPK1, ATP Km app, Adapta
# Chain of off-target kinases (Homo sapiens, UniProt P53355) (P53355 whole entry): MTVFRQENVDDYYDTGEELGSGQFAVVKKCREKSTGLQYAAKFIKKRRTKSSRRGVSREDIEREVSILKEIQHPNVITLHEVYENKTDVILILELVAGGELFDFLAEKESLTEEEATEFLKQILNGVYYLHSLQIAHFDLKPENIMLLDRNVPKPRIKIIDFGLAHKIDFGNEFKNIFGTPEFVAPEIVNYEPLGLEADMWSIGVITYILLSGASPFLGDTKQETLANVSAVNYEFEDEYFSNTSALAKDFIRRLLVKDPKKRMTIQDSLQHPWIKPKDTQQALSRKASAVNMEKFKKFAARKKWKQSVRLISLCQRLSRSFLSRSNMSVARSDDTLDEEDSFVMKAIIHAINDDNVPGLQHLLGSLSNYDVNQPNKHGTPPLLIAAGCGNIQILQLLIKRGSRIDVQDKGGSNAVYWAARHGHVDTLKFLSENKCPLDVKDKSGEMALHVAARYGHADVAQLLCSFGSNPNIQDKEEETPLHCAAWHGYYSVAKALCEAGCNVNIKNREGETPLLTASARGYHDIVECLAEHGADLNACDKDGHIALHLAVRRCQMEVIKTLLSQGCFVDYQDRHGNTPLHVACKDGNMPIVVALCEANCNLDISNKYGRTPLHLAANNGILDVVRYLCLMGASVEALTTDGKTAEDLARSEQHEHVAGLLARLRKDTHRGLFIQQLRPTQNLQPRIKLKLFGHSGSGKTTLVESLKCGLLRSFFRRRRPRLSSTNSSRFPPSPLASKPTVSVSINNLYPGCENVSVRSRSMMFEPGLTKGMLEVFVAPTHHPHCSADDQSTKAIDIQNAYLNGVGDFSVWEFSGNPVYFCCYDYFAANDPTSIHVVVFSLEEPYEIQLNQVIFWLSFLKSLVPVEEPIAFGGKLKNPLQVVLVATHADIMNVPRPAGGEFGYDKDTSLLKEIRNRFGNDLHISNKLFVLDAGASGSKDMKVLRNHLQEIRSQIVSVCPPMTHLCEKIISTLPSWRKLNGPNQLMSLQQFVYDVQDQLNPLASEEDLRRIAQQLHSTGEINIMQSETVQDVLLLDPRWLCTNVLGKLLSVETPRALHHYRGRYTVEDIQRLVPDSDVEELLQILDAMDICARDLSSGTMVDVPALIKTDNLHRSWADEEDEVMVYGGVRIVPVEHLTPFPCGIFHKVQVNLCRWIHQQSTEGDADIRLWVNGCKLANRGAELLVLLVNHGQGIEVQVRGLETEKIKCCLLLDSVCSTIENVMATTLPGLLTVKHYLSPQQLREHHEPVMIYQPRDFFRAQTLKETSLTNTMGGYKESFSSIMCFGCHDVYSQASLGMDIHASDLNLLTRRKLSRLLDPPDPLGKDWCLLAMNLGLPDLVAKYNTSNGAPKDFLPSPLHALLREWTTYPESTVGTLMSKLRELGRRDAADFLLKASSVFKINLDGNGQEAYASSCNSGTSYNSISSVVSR
# off-target kinases [7] = target: T1, off-target kinases (Homo sapiens, UniProt Q13043)
# T1 sequence (Q13043 1-487): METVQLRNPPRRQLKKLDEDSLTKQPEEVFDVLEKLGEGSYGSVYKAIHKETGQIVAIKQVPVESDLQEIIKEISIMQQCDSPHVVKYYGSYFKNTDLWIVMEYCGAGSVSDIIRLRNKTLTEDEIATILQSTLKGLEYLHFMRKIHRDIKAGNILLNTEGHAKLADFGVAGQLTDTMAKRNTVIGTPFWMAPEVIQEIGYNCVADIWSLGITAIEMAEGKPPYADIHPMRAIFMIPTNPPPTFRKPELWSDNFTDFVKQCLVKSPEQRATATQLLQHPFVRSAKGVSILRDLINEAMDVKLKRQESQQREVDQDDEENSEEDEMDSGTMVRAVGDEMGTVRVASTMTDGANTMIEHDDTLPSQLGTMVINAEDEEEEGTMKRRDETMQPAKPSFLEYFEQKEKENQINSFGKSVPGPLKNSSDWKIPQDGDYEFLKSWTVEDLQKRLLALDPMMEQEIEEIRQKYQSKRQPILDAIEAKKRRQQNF
# off-target kinases [8] = target: T2, off-target kinases (Homo sapiens, UniProt Q9UEE5); conditions: STK17A (DRAK1), LanthaScreen Binding
# T2 sequence (Q9UEE5 1-414): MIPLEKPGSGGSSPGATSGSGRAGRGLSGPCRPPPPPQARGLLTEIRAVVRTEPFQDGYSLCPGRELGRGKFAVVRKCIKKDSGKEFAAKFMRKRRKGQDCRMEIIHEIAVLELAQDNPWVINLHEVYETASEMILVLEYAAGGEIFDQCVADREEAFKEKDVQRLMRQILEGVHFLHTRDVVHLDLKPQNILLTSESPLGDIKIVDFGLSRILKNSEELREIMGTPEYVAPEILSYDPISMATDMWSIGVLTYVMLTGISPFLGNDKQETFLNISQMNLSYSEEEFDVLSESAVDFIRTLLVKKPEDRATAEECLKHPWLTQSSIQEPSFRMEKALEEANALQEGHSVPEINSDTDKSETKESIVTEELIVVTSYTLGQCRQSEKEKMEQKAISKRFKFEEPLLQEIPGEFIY
structure (smiles),measurement,setting,value
"N#Cc1cc(-c2ncnc(Nc3ccc(N4CCN(C5COC5)CC4)cc3)n2)ccc1OC1CCOCC1 [Compound 1, 5-(4-((4-(4-(oxetan-3-yl)piperazin-1-yl)phenyl)amino)-1,3,5-triazin-2-yl)-2-((tetrahydro-2H-pyran-4-yl)oxy)benzonitrile]",inhibition,off-target kinases [1]; read-out: % Inhibition 1,56%
same,inhibition,off-target kinases [1]; read-out: % Inhibition 2,51%
same,inhibition,off-target kinases [1]; read-out: % Inhibition Avg,54%
same,inhibition,off-target kinases [2]; read-out: % Inhibition 1,48%
same,inhibition,off-target kinases [2]; read-out: % Inhibition 2,51%
same,inhibition,off-target kinases [2]; read-out: % Inhibition Avg,49%
same,inhibition,off-target kinases [3]; read-out: % Inhibition 1,60%
same,inhibition,off-target kinases [3]; read-out: % Inhibition 2,61%
same,inhibition,off-target kinases [3]; read-out: % Inhibition Avg,60%
same,inhibition,off-target kinases [4]; read-out: % Inhibition 1,20%
same,inhibition,off-target kinases [4]; read-out: % Inhibition 2,25%
same,inhibition,off-target kinases [4]; read-out: % Inhibition Avg,23%
same,inhibition,off-target kinases [5]; read-out: % Inhibition 1,64%
same,inhibition,off-target kinases [5]; read-out: % Inhibition 2,60%
same,inhibition,off-target kinases [5]; read-out: % Inhibition Avg,62%
same,inhibition,off-target kinases [6]; read-out: % Inhibition 1,42%
same,inhibition,off-target kinases [6]; read-out: % Inhibition 2,43%
same,inhibition,off-target kinases [6]; read-out: % Inhibition Avg,43%
same,inhibition,"off-target kinases [7]; STK4 (MST1), ZLYTE, ATP Km app, read-out: % Inhibition Avg",0%
same,inhibition,off-target kinases [7]; read-out: % Inhibition 1,0%
same,inhibition,off-target kinases [7]; read-out: % Inhibition 2,0%
same,inhibition,off-target kinases [8]; read-out: % Inhibition 1,101%
same,inhibition,off-target kinases [8]; read-out: % Inhibition 2,101%
same,inhibition,off-target kinases [8]; read-out: % Inhibition Avg,101%
